According to patent US20070004720A1, “Use of tyrosine kinase inhibitors for the treatment of inflammatory processes” (priority 2003, published 2007):

Test system: cigarette smoke-induced influx of neutrophilic granulocytes into the lung tissue
Assay: Inhibition of the smoke-induced accumulation of granulocytes in the lung tissue (MPO activity)
Format: in vivo, rats (strain: Sprague-Dawley)
Details: for ED50: Rattus norvegicus, male Sprague-Dawley rats, 5 days cigarette smoke exposure, intratracheal dose daily 30 min before smoke, lung tissue MPO, linear regression, read-out: ID50 (dosage which led to a 50% inhibition of the MPO activity)
Text: Inhibition of the Smoke-Induced Accumulation of Granulocytes in the Lung Tissue Lung indications: Inhibition of the cigarette smoke-induced influx of neutrophilic granulocytes into the lung tissue by the above-mentioned EGF-receptor kinase inhibitor. Male rats (strain: Sprague-Dawley) weighing from 250-300 g were exposed for 5 days to the smoke from 8 cigarettes per day. The animals in the group treated with compound A, anaesthetised with isofluran, were given an intratracheal dose of 0.03 or 0.1 mg/kg of compound A in a volume of 0.05 ml each day 30 min before the start of the exposure to smoke. On the last day of the test the animals were killed 4 hours after the last exposure to smoke and the lung tissue was removed. A sample of 70-200 mg was taken from each lung and placed in a test tube prepared with 1 ml of 0.5% hexadecyltrimethylammonium bromide. The samples were homogenised for 15 sec using an Ultraturrax. The homogenised samples were centrifuged at 15700 g in an Eppendorf bench centrifuge for 5 min at ambient temperature. […] of the supernatant was removed and mixed with […] of phosphate buffer (50 mmol/l) containing 0.197 mg/ml of O-dianisidine dihydrochloride. After 10 minutes' incubation at ambient temperature the absorption was measured with a spectral photometer at a wavelength of 450 nm. The dosage which led to a 50% inhibition of the MPO activity (=ID50) was determined by linear regression. Exposure to cigarette smoke in rats led to an influx of neutrophilic granulocytes into the lung tissue, measured by the content of myeloperoxidase in the tissues, which is specific for neutrophilic granulocytes.

SMILES	ED50	inhibition of the smoke-induced accumulation of granulocytes (rats, intratracheal 0.03 or 0.1 mg/kg daily, 5 days smoke exposure, myeloperoxidase content of lung tissue)
COc1cc2ncnc(Nc3ccc(F)c(Cl)c3)c2cc1O[C@H]1CC[C@@H](NC(=O)N2CCOCC2)CC1 [K, 4-[(3-chloro-4-fluoro-phenyl)amino]-6-{cis-4-[(morpholin-4-yl)carbonylamino]-cyclohexan-1-yloxy}-7-methoxy-quinazoline]	0.13 mg/kg	
COc1cc2ncnc(Nc3ccc(F)c(Cl)c3)c2cc1O[C@H]1CC[C@@H](N(C)S(=O)(=O)N2CCOCC2)CC1 [E, 4-[(3-chloro-4-fluoro-phenyl)amino]-6-(cis-4-{N-[(morpholin-4-yl)sulphonyl]-N-methyl-amino}-cyclohexan-1-yloxy)-7-methoxy-quinazoline]	0.4 mg/kg	
COCCOc1cc2ncnc(Nc3ccc(F)c(Cl)c3)c2cc1OC1CCN(C(=O)N2CCOCC2)CC1 [L, 4-[(3-chloro-4-fluoro-phenyl)amino]-6-{1-[(morpholin-4-yl)carbonyl]-piperidin-4-yloxy}-7-(2-methoxy-ethoxy)-quinazoline]	0.4 mg/kg	
C#Cc1cccc(Nc2ncnc3cc(OC)c(OC4CCN(C(=O)OC(C)(C)C)CC4)cc23)c1 [G, 4-[(3-ethynyl-phenyl)amino]-6-[1-(tert.-butyloxycarbonyl)-piperidin-4-yloxy]-7-methoxy-quinazoline]	0.01 mg/kg	
COc1cc2ncnc(Nc3ccc(F)c(Cl)c3)c2cc1O[C@H]1CC[C@@H](NC(C)=O)CC1 [F, 4-[(3-chloro-4-fluoro-phenyl)amino]-6-(cis-4-acetylamino-cyclohexan-1-yloxy)-7-methoxy-quinazoline]	0.015 mg/kg	
COc1cc2ncnc(Nc3ccc(F)c(Cl)c3)c2cc1O[C@H]1CC[C@@H](N(C)C(=O)N2CCN(C)CC2)CC1 [I, 4-[(3-chloro-4-fluoro-phenyl)amino]-6-(cis-4-{N-[(4-methyl-piperazin-1-yl)carbonyl]-N-methyl-amino}-cyclohexan-1-yloxy)-7-methoxy-quinazoline]	0.15 mg/kg	
COc1cc2ncnc(Nc3ccc(F)c(Cl)c3)c2cc1OC1CCN(C(=O)N2CCOCC2)CC1 [A, 4-[(3-chloro-4-fluoro-phenyl)amino]-6-{1-[(morpholin-4-yl)carbonyl]-piperidin-4-yloxy}-7-methoxy-quinazoline]	0.1 mg/kg	significant (p<0.005) inhibition
C#Cc1cccc(Nc2ncnc3cc(OC)c(OC4CCN(C)CC4)cc23)c1 [M, 4-[(3-ethynyl-phenyl)amino]-6-(1-methyl-piperidin-4-yloxy)-7-methoxy-quinazoline]	0.07 mg/kg	
COc1cc2ncnc(Nc3ccc(F)c(Cl)c3)c2cc1O[C@H]1CC[C@@H](N(C)C(=O)C2CCOCC2)CC1 [D, 4-[(3-chloro-4-fluoro-phenyl)amino]-6-(cis-4-{N-[(tetrahydropyran-4-yl)carbonyl]-N-methyl-amino}-cyclohexan-1-yloxy)-7-methoxy-quinazoline]	0.02 mg/kg	
COCC(=O)N1CCC(Oc2cc3c(Nc4ccc(F)c(Cl)c4)ncnc3cc2OC)CC1 [B, 4-[(3-chloro-4-fluoro-phenyl)amino]-6-{1-[(methoxymethyl)carbonyl]-piperidin-4-yloxy}-7-methoxy-quinazoline]	0.01 mg/kg	
COc1cc2ncnc(Nc3ccc(F)c(Cl)c3)c2cc1O[C@H]1CC[C@@H](N(C)C(=O)N2CCCCC2)CC1 [H, 4-[(3-chloro-4-fluoro-phenyl)amino]-6-(cis-4-{N-[(piperidin-1-yl)carbonyl]-N-methyl-amino}-cyclohexan-1-yloxy)-7-methoxy-quinazoline]	0.15 mg/kg	
COc1cc2ncnc(Nc3ccc(F)c(Cl)c3)c2cc1OC1CCN(CCNC(C)=O)CC1 [C, 4-[(3-chloro-4-fluoro-phenyl)amino]-6-[1-(2-acetylamino-ethyl)-piperidin-4-yloxy]-7-methoxy-quinazoline]	0.03 mg/kg	
